Reference: ChEMBL document CHEMBL5236632, “Membrane-Active Nonivamide Derivatives as Effective Broad-Spectrum Antimicrobials: Rational Design, Synthesis, and Biological Evaluation” (J Med Chem, 2022)
Converted amounts (≈) assume the structure as drawn.

Legend:
[1] = Selectivity ratio, HC50 for hemolytic activity in rabbit RBC to MIC for antibacterial activity against methicillin-resistant Staphylococcus aureus N315; format: toxicity; details: rabbit red blood cells
Klebsiella pneumoniae = experiment: Antibacterial activity against Klebsiella pneumoniae ATCC 10031 assessed as inhibition of visible growth measured after 18 to 24 hrs by broth dilution method; format: functional; details: time 18-24 hrs
Staphylococcus aureus [2] = experiment: Antibacterial activity against methicillin-resistant Staphylococcus aureus NCTC 10442 assessed as inhibition of visible growth measured after 18 to 24 hrs in presence of 24.3 ug/ml Mg2+ by broth dilution method; format: functional; details: time 18-24 hrs
[3] = Selectivity ratio, HC50 for hemolytic activity in rabbit RBC to MIC for antibacterial activity against Acinetobacter baumannii R2889; format: toxicity; details: rabbit red blood cells
Escherichia coli [4] = experiment: Antibacterial activity against Escherichia coli […] assessed as inhibition of visible growth measured after 18 to 24 hrs in presence of 100 ug/ml Ca2+ by broth dilution method; format: functional; details: time 18-24 hrs
Escherichia coli [5] = experiment: Eradication of biofilm in Escherichia coli ATCC 25922 assessed as biofilm viability at 12.5 ug/ml measured after 24 hrs by crystal violet staining assay; format: functional; details: dose 12.5 µg/ml
Escherichia coli [6] = experiment: Inhibition of biofilm formation Escherichia coli ATCC 25922 assessed as decrease in biofilm formation at 0.39 ug/ml measured after 24 hrs by crystal violet staining assay; format: functional
[7] = Selectivity ratio, HC50 for hemolytic activity in rabbit RBC to MIC for antibacterial activity against Staphylococcus aureus ATCC 29213; format: toxicity; details: rabbit red blood cells
Staphylococcus aureus [8] = experiment: In vivo antibacterial activity against Staphylococcus aureus ATCC 29213 infected in C57BL/6 mouse keratitis model assessed as reduction in number of viable bacterial colonies in infected cornea at 5 mg/kg topically 4 times per day for 3 consecutive days; format: functional; details: route top, time 3 day

SMILES: CCCCCCCCC(=O)NCc1ccc(OCCCCCCNC(=N)N)c(OCCCCCCNC(=N)N)c1
- selectivity ratio [1]: 173
- MIC (Klebsiella pneumoniae): 1.56 µg/mL (≈ 2.78 µM)
- MIC (Staphylococcus aureus [2]): 0.39 µg/mL
- selectivity ratio [3]: 21.6
- MIC (Escherichia coli [4]): 3.12 µg/mL
- Activity (Escherichia coli [5]): 15.04%
- inhibition at 0.39 µg/mL (Escherichia coli [6]): 85.1%
- selectivity ratio [7]: 173
- Activity (Staphylococcus aureus [8]): 6.5 log10CFU/ml
